# Test results taken from ChEMBL document CHEMBL1128410 (J Med Chem, 1995).
# Molecular target: Carbonic anhydrase 2 (Homo sapiens, UniProt P00918)
# Description: Compound was tested for the binding affinity towards Carbonic anhydrase II by competitive fluorescence assay with dansylamide
row,Structure (SMILES),Kd [nM]
1,NC(CO)C(=O)[C@@H](N)C(=O)NCCOCCOCCNC(=O)c1ccc(S(N)(=O)=O)cc1 (stereo not given in full),41
2,NCCCCC(N)C(=O)[C@@H](N)C(=O)NCCOCCOCCNC(=O)c1ccc(S(N)(=O)=O)cc1 (stereo not given in full),50
3,NC(CCC(=O)O)C(=O)[C@@H](N)C(=O)NCCOCCOCCNC(=O)c1ccc(S(N)(=O)=O)cc1 (stereo not given in full),100

# Compounds with a lower Kd, results first:
row,Kd [nM],Structure (SMILES)
1,19,NCC(=O)[C@@H](N)C(=O)NCCOCCOCCNC(=O)c1ccc(S(N)(=O)=O)cc1
2,16,CC(C)CC(N)C(=O)[C@@H](N)C(=O)NCCOCCOCCNC(=O)c1ccc(S(N)(=O)=O)cc1 (stereo not given in full)
